# Where two headings read alike, the source gives them in different places.
# How the values were obtained:
# weeds = conditions: in vivo; cited from earlier work
# [1] = tested on: main weeds in the cropland; format: in vivo
# Striga hermonthica = conditions: 10-4 mol/L; cited from earlier work
# [2] = tested on: thylakoid membrane, electron transfer reaction of two photosystems, especially photosystem II; format: biochemical
smiles,measurement,setting,value
O=C(O)CNCP(=O)(O)O [glyphosate],time to kill the weeds,weeds,at least 10 days
CC(=O)C1=C(O)C(CC(C)C)NC1=O (stereo not shown) [iso-tenuazonic acid],time to distinct toxic symptom,"[1]; sprayed on the stems and leaves, 5 to 800 μg/g",five
same,time to obvious injuried symptom,[1]; stem or leaf treatment,12 h
same,inhibitory effect on the seed germination,Striga hermonthica,around 50%
same,apparent quanta efficiency,[2],obviously reduce
same,"electron transfer reaction of two photosystems, especially photosystem II",[2],inhibiting
same,photosynthetic oxygen evolution rate,[2],obviously reduce
CCC(C)C1NC(=O)C(C(C)=O)=C1O (stereo not shown) [tenuazonic acid],time to distinct toxic symptom,[1]; in vivo,five
same,time to obvious injuried symptom,[1]; in vivo,12 h
same,inhibitory effect on the seed germination,Striga hermonthica,around 50%
same,apparent quanta efficiency,[2],obviously reduce
same,"electron transfer reaction of two photosystems, especially photosystem II",[2],inhibiting
same,photosynthetic oxygen evolution rate,[2],obviously reduce

# — patent US20080280761A1 (priority 2005, published 2008)
